The values below are quoted from earlier work in patent publication US7271157B2, “A1 adenosine receptor agonists” (CV Therapeutics, Inc., priority 2004, dated 2007).

One data set deals with seizures induced by DMCM. The note with it: experimental models of epilepsy.
Another data set deals with T1, A1-adenosine receptor (Homo sapiens, UniProt P30542).
T1 sequence (P30542 1-326): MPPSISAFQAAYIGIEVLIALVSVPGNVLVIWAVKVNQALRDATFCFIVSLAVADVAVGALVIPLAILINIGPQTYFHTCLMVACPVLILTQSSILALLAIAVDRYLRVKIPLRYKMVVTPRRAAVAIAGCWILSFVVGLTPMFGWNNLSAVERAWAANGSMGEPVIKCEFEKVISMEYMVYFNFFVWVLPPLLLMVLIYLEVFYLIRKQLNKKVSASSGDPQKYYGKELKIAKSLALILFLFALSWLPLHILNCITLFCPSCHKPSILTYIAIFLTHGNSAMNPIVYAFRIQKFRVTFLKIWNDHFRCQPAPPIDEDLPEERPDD

Regarding `Cc1ccccc1CNc1ncnc2c1ncn2[C@@H]1O[C@H](CO)[C@@H](O)[C@H]1O` [metrifudil], in the data set with seizures induced by DMCM, the “anticonvulsant activity against DMCM-induced seizures” value is on record as “potent anticonvulsant”.
In the case of `OC1CCCC1Nc1ncnc2c1ncn2[C@@H]1O[C@H](CSc2ccccc2F)[C@@H](O)[C@H]1O` (mixture of isomers) [(4S,5S,2R,3R)-5-[(2-fluorophenylthio)methyl]-2-{6-[(2-hydroxycyclopentyl)amino]-purin-9-yl}oxolane-3,4-diol], the “A1-adenosine receptor agonist character and selectivity” value at A1-adenosine receptor is listed as “highly selective partial A1-adenosine receptor agonist”.
As for `Nc1ncnc2c1ncn2[C@@H]1O[C@H](CO)[C@@H](O)[C@H]1O` [adenosine], the half-life entry is on record as “less than 10 sec”.
